Experiments:
[1] = system: C. albicans SC5314; experiment: alamarBlue-based polystyrene adhesion assay; type: cell-based, Candida albicans; settings: for C. albicans adhesion to polystyrene: 25 μM
Description: We prioritized the candidate compounds by testing the dose-dependence of their effects. Because of the laborious washing required to remove background crystal violet dye staining, we developed adhesion assays using alternative detection reagents. Previous experiments screens have used the vital dye alamarBlue to measure Candida viability (Lafleur, J. Antimicrob Chemother. 66: 820-826, 2011; Youngsaye supra), so we tested this reagent as a way to measure cells remaining adhered after washing. […] The majority of the reordered compounds were effective at reducing Candida adhesion at 50 μM, the concentration originally tested during the screen. […] Although compounds that were still effective at 25 μM were less generally less so at 7.5 μM (FIG. 1C), many candidates still reduced adhesion by >50% at this lower concentration.
Overnight cultures of SC5314 and edt1^−/− cells were grown and plated onto Immulon 2HB 96-well microtiter plates and treated with small molecules as described above. Following incubations, media was decanted and plates were washed twice with 100 μl/well PBS. alamarBlue (Life Technologies) was resuspended to a final concentration of 5% in RPMI buffered with 0.165 M MOPS and then 100 μl was added to each well, followed by further incubation for 2 hours at 37° C. Fluorescence signals at 555Ex/585Em were read using a SpectraMax M5 Plate reader (Molecular Devices).

[2] = system: C. albicans SC5314-GFP biofilm; experiment: biofilm formation on silicone elastomers; type: cell-based, Candida albicans; settings: for dry weight of biofilm / biofilm formation, visual inspection: 50 μM, 60 hrs; for biofilm formation, visual inspection: silicone mesh
Protocol: FIGS. 5A-5C. Effect of small molecules on biofilm formation in vitro. FIG. 5A is a series of photographs showing biofilm formation on silicone elastomers. Biofilm assay was performed with SC5314-GFP and edt1^Δ/Δ-GFP and photographed after 60 hrs. Indicated compounds were added at 50 μM. Turbid medium indicates planktonic cells unattached to silicone elastomers when biofilm formation is inhibited. Clear medium with the cell attached to the silicone elastomer indicate establishment of functional biofilm. Each treatment was done in triplicate. FIG. 5B is a graph showing quantitation of turbidity of medium. Media was removed from the wells, vortexed vigorously and the OD at 600 nm was measured in a spectrophotometer. FIG. 5C is a graph showing quantitation of dry weight of biofilm. Dry weight in mg of air-dried silicone elastomers.
Fungal biofilm formation on implanted medical devices is a serious medical problem because these biofilms can lead to life-threatening systemic infections. An established in vitro assay to study device colonization makes use of silicone mesh as a surrogate surface (Nobile, 2006). We tested how the compounds that affected polystyrene adhesion (FIG. 1) would affect biofilm formation by visual inspection of the biofilms formed, by measuring the optical density of the supernatant liquid cultures, and by measuring their dry weights. […] Therefore, compounds #4 and Q1 were effective inhibitors of both hyphal morphogenesis (FIG. 4) and biofilm formation on silicone mesh (FIG. 5).
We adapted a published method (Nobile, 2006, supra). Autoclaved, pre-weighed silicone mesh squares (Bentec, Catalog Number PR72034-04N) were incubated overnight at 37° C. with undiluted bovine serum. Following washing with PBS, the squares were transferred to 12-well plates and incubated with 0.5 OD/ml SC5314-GFP cells in Spider medium (with or without drugs as indicated), for 90 min at 37° C., shaking at 200 rpm. Squares were washed in PBS and transferred to new 12-well plates containing fresh Spider medium with fresh drugs and incubated for 60 hrs in a 37° C. shaker at 200 rpm. The plates were then photographed, the liquid media were collected for A600 nm measurements, and the dry weights of the bound biofilms were measured following drying of the silicone squares in a chemical hood.

[3] = system: Aspergillus fumigatus; experiment: Aspergillus hyphal formation; type: cell-based; settings: 50 μM and 100 μM; RPMI overnight
Protocol: FIGS. 26A-26D. Compound #4 inhibits hyphal formation of Aspergillus fumigatus. FIGS. 26A-26B are photographs showing hyphal development occurs normally in RPMI tissue culture media in the absence of treatment (FIG. 26A) and in the presence of 1% DMSO (control; FIG. 26B). Aspergillus hyphal development was inhibited in the presence of 50 μM and 100 μM compound #4 (FIGS. 26C and 26D, respectively).
Compound #4 was also tested for its inhibitory effect on the growth of Aspergillus fumigatus. Fresh Aspergillus fumigatus conidia (spores) were grown in RPMI tissue culture media overnight in the presence of 1% DMSO (control), 50 μM compound #4, 100 μM compound #4, or no treatment (control) using methods similar to those described in Ramirez-Ortiz et al. (Cell Host & Microbe 9:415-424, 2011). […] This is the first step in germination of the spores, and is required for pathogenesis.

[4] = system: C. albicans hyphae formation; experiment: filamentation assay (hyphal morphogenesis); type: cell-based, Candida albicans; settings: 50 μM overlay; 37° C., 2 days

Row | Structure (SMILES) | C. albicans adhesion to polystyrene [1] | synergy on adhesion upon combining compound #4 and compound #12 ([1]; #4 1.5 μM with #12 4 and 6 μM) | effect on adhesion of compound alone ([1]; compound #4 1.5 μM, compound #12 4 and 6 μM) | dry weight of biofilm [2] | biofilm formation, visual inspection [2] | biofilm formation on silicone mesh ([2]; Example 14) | hyphal formation [3] | wrinkled colony morphology on solid Spider media [4]
1 | Cc1ccc(C(=O)N2CCN(c3ccc([N+](=O)[O-])cc3)CC2)cc1Cl [Compound 4] | effective adhesion inhibitors | did not further reduce adhesion | partial effects | most effective at reducing biofilm formation | most effectively kept the cells dispersed in the media rather than on the mesh | effective inhibitors of both hyphal morphogenesis and biofilm formation on silicone mesh | blocks hyphal formation at both concentrations tested | abolished
2 | O=C(c1ccc(Cl)c(Cl)c1)N1CCN(c2ccc([N+](=O)[O-])cc2)CC1 [Compound 9] | effective adhesion inhibitors | – | – | most effective at reducing biofilm formation | most effectively kept the cells dispersed in the media rather than on the mesh | – | – | –
